Columns and labels:
NDM-1 = NDM-1 (Klebsiella pneumoniae, UniProt C7C422); assay: biochemical; assay type: biochemical; conditions: CCF2-FA fluorescence assay, 2 hours at 25° C.
Method in brief: (§1)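 Metallo-β-lactamase activity read by fluorescence against CCF2-FA (1.25 μM final) in 100 mM KH2PO4 pH 7 with 0.005% Tween-20 and 10 μM ZnSO4; enzyme final at 1 pM NDM-1, 2 pM IMP-1 or 30 pM VIM-1. Inhibitor at 20 to 0.00063 μM, 2 h at 25° C; IC50 by 4-parameter fit.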

IMP-1 = IMP-1 (Serratia marcescens, UniProt P52699); assay: biochemical; conditions: CCF2-FA fluorescence assay, 2 hours at 25° C.; read-out: IMP1 IC50
Method in brief: as §1

VIM-1 = VIM-1 (Pseudomonas aeruginosa (strain ATCC 15692 / DSM 22644 / CIP 104116 / JCM 14847 / LMG 12228 / 1C / PRS 101 / PAO1), UniProt A0A0F7KYQ8); assay: biochemical; conditions: CCF2-FA fluorescence assay, 2 hours at 25° C.; read-out: VIM1 IC50
Method in brief: as §1

VIM-2 = VIM-2 (Escherichia coli, UniProt Q5U7L7); assay: biochemical; conditions: CCF2-FA fluorescence assay; read-out: VIM2 IC50
[1] = test system: Escherichia coli expressing NDM-1 (CLB30016); assay type: cell-based; conditions: with imipenem 1 μg/ml; 95% inhibition of bacterial growth
Method in brief: (§2)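 MITC95 denotes the minimal test-compound level that, combined with 1 μg/ml imipenem, blocks 95% of bacterial growth, measured by absorbance. Overnight-grown clinical isolates were diluted 1:100 in CAMHB and incubated with both agents at 35° C for 22–24 h.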

[2] = test system: Klebsiella pneumoniae expressing VIM-1 (IHMA599644); assay type: cell-based; conditions: with imipenem 1 μg/ml; 95% inhibition of bacterial growth
Method in brief: as §2

[3] = test system: Serratia marcescens expressing IMP-1 (CL5741); assay type: cell-based; conditions: with imipenem 1 μg/ml; 95% inhibition of bacterial growth
Method in brief: as §2

[4] = test system: P. aeruginosa MB9798 (efflux+, IMP-1 plasmid); conditions: for MB9798 MITC95 P. aeruginosa uM Efflux WT: efflux + (MB9798) strain, imipenem at 2 μg/mL, in the presence of a class A, C, D serine β-lactamase inhibitor closely related to relebactam; for Efflux ratio: fold difference between efflux+ (MB9798) and efflux− (MB9799) strains
Method in brief: (§3)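 PAO1-derived isogenic pair (oprD+, inducible AmpC), efflux+ MB5919 or efflux− MB5890 parent, carrying an electroporated IMP-1 plasmid from a clinical isolate. Microbroth MIC with fixed imipenem and/or ceftazidime (usually CLSI breakpoint) plus fixed class A/C inhibitor; MBL inhibitor serially titrated, concentration restoring susceptibility recorded.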

[5] = test system: P. aeruginosa MB9799 (efflux-, IMP-1 plasmid); assay type: cell-based, Pseudomonas aeruginosa; conditions: efflux − (MB9799) strain; imipenem at 2 μg/mL; in the presence of a class A, C, D serine β-lactamase inhibitor closely related to relebactam
Method in brief: as §3

Sequence of NDM-1 (C7C422 whole entry, looked up, species assumed): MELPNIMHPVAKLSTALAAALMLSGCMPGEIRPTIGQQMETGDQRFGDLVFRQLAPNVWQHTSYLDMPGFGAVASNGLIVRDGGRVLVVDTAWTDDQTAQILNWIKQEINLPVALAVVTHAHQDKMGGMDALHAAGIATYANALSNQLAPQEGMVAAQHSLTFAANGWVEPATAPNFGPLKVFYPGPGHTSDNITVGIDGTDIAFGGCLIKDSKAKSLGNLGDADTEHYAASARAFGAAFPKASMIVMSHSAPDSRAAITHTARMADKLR
Sequence of IMP-1 (P52699 whole entry, looked up, species assumed): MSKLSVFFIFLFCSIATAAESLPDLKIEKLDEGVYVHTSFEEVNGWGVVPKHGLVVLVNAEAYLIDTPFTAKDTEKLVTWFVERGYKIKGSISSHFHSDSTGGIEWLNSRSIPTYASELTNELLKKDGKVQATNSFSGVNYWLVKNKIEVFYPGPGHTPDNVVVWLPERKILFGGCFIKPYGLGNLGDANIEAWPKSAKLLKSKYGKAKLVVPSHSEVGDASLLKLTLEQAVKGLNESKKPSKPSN

Row | Compound | IC50 (NDM-1) [nM] | IC50 (IMP-1) [nM] | IC50 (VIM-1) [nM] | IC50 (VIM-2) [nM] | CLB30016 E. coli MITC95 NDM [1] [µM] | IHMA599644 K. pneumoniae MITC95 VIM [2] [µM] | CL5741 S. marcescens MITC95 IMP [3] [µM] | MB9798 MITC95 P. aeruginosa uM Efflux WT [4] [µM] | Efflux ratio [4] | MB9799 MITC95 P. aeruginosa uM Efflux Mutant [5] [µM]
1 | NC[C@@H](O)CNS(=O)(=O)c1ccc(N2CC[C@H](CN)[C@H](O)C2)c(-c2nn[nH]n2)c1S(N)(=O)=O [Example 9, N^1—((R)-3-amino-2-hydroxypropyl)-4-(cis-4-(aminomethyl)-3-hydroxypiperidin-1-yl)-3-(2H-tetrazol-5-yl)benzene-1,2-disulfonamide] | 3.46 | 15.5 | 0.26 | 6.41 | 0.39 | 1.56 | 0.78 | 1.56 | 2.00 | 0.78
2 | NC[C@@H](O)CNS(=O)(=O)c1ccc(N2CC[C@H](CN)[C@@H](O)C2)c(-c2nn[nH]n2)c1S(N)(=O)=O [Example 10] | 16.4 | 28.9 | 0.43 | 27 | 0.39 | 1.56 | 0.39 | 3.13 | 4.00 | 0.78
3 | NC[C@@H](O)CNS(=O)(=O)c1ccc(N2C[C@@H]3[C@@H](CN)[C@@H]3C2)c(-c2nn[nH]n2)c1S(N)(=O)=O [Example 11] | 8.96 | 35.5 | 2.03 | 24.7 | 0.78 | 0.78 | 1.56 | 6.25 | 4.00 | 1.56
4 | NC[C@@H](O)CNS(=O)(=O)c1ccc(N2CCC3(CC2)CC3N)c(-c2nn[nH]n2)c1S(N)(=O)=O (some centres unmarked) [Example 12] | 1.51 | 4.08 | 1.48 | 17.6 | 0.78 | 1.56 | 1.56 | 1.56 | 2.00 | 0.78
5 | NCCC1CCN(c2ccc(S(=O)(=O)N[C@@H]3CCNC3)c(S(N)(=O)=O)c2-c2nn[nH]n2)CC1 [Example 16, (R)-4-(4-(2-aminoethyl)piperidin-1-yl)-N^1-(pyrrolidin-3-yl)-3-(2H-tetrazol-5-yl)benzene-1,2-disulfonamide] | 0.72 | 1.85 | 0.08 | 1.61 | 1.17 | 1.56 | 1.56 | 0.78 | 1.00 | 0.78
6 | NCCNS(=O)(=O)c1ccc(N2CCC(O)(CN)CC2)c(-c2nn[nH]n2)c1S(N)(=O)=O [Example 17] | 17 | 26.9 | 15.1 | 64.6 | 0.78 | 1.56 | 0.78 | 1.56 | 2.00 | 0.78
7 | C[C@@H](CN)NS(=O)(=O)c1ccc(N2CCC(O)(CN)CC2)c(-c2nn[nH]n2)c1S(N)(=O)=O [Example 18, (S)-4-(4-(aminomethyl)-4-hydroxypiperidin-1-yl)-N1-(1-aminopropan-2-yl)-3-(2H-tetrazol-5-yl)benzene-1,2-disulfonamide] | 0.43 | 1.48 | 0.65 | 4.8 | 0.78 | 1.56 | 0.78 | 0.78 | 1.00 | 0.78
8 | COC1(CO)CCN(c2ccc(S(=O)(=O)N[C@H](C)CN)c(S(N)(=O)=O)c2-c2nn[nH]n2)CC1 [Example 19, (R)-N1-(1-aminopropan-2-yl)-4-(4-(hydroxymethyl)-4-methoxypiperidin-1-yl)-3-(2H-tetrazol-5-yl)benzene-1,2-disulfonamide] | 0.17 | 0.37 | 0.65 | 2.27 | 3.13 | 12.50 | 3.13 | 3.13 | 1.00 | 3.13
9 | NC[C@@H](O)CNS(=O)(=O)c1ccc(N2CCOC(CO)C2)c(-c2nn[nH]n2)c1S(N)(=O)=O (stereo partly drawn) [Example 20, N^1—((R)-3-amino-2-hydroxypropyl)-4-(2-(hydroxymethyl)morpholino)-3-(2H-tetrazol-5-yl)benzene-1,2-disulfonamide] | 0.77 | 1.53 | 0.26 | 0.49 | 1.56 | 3.13 | 0.78 | 3.13 | 4.00 | 0.78
10 | COC1(CO)CCN(c2ccc(S(=O)(=O)NC[C@H](O)CN)c(S(N)(=O)=O)c2-c2nn[nH]n2)CC1 [Example 21, (R)-N^1-(3-amino-2-hydroxypropyl)-4-(4-(hydroxymethyl)-4-methoxypiperidin-1-yl)-3-(2H-tetrazol-5-yl)benzene-1,2-disulfonamide] | 0.41 | 0.56 | 1.13 | 2.7 | 12.50 | 12.50 | 6.25 | 3.13 | 1.00 | 3.13
11 | NC[C@@H](O)CNS(=O)(=O)c1ccc(N2CCC(F)(CO)CC2)c(-c2nn[nH]n2)c1S(N)(=O)=O [Example 22, (R)-N^1-(3-amino-2-hydroxypropyl)-4-(4-fluoro-4-(hydroxymethyl)piperidin-1-yl)-3-(2H-tetrazol-5-yl)benzene-1,2-disulfonamide] | 0.45 | 0.7 | 0.35 | 0.79 | 3.13 | 6.25 | 1.56 | 1.56 | 1.00 | 1.56
